Tests used:
[1] = system: acute stress-induced visceral hypersensitivity; assay: Effect on acute stress-induced visceral hypersensitivity (colorectal distension); format: in vivo, rat; details: female Wistar rats, partial restraint stress, 10 mg/kg oral, at 45 and 60 mm Hg, p<0.05 (FIG. 6)
Description: Female Wistar rats weighing 220-250 g were prepared for electromyography. The animals were anaesthetized, and three pairs of nichrome wire electrodes were implanted bilaterally in the striated muscles at 3 cm laterally from the midline. The free ends of electrodes were exteriorised on the back of the neck and protected by a glass tube attached to the skin. Electromyographic recordings (EMG) were begun 5 days after surgery. The electrical activity of the abdominal striated muscles were recorded with an electromyograph machine (Mini VIII; Alvar, Paris, France) using a short time constant (0.03 sec.) to remove low-frequency signals (<3 Hz).
Partial restraint stress (PRS), a relatively mild stress, was performed as follows. Briefly, animals were lightly anaesthetized with ethyl-ether, and their […], upper forelimbs and thoracic trunk were wrapped in a confining harness of paper tape to restrict, but not prevent their body movements and placed in their home cage for 2 hours. Control sham-stress animals were anaesthetized but not wrapped. […]
Colorectal distension (CRD) was accomplished as follows: rats were placed in a plastic tunnel, where they were not allowed to move or escape daily during 3 consecutive days (3 h/day) before any CRD. […] For each parameter studied (the number of abdominal contractions for each 5-min period during rectal distension) data is expressed as mean±SEM. […]

fecal water content = assay: Pharmacodynamic model: effect of test compounds on fecal water content; format: in vivo, rat; details: female Sprague Dawley rats, 3 mg/kg oral, feces collected 16 hrs
Description: Normal female Sprague Dawlev rats (Charles-River laboratories international, Hollister, Calif.), 7-8 weeks old with body weight 175-200 g were acclimated for at least 3 days before proceeding to experiments. The animals were provided food (Harlan Teklad 2018c) and water ad lib, through the experiment. Animals were randomly grouped with 6 rats per group.
The experiments were initiated by orally dosing test compounds at 3 mg/kg in volume of 10 ml/kg. Rats from control group were gavaged with the same volume of vehicle (water). After dosing, rats were placed in metabolic cages for 16 hrs (overnight). Food and water consumption were monitored. After sixteen hours, feces and urine were collected. The percent of fecal water was measured by weighing fecal samples before and after drying.
Representative data of % fecal water content are shown in Table 12 (data are expressed as means, with 6 animals per data point). The differences between control and treated groups were evaluated by one way ANOVA with Dunnett post tests. Results are significant if p<0.05.

[2] = system: fecal water content, urinary sodium, fecal form; assay: Pharmacodynamic model: addition of a fluid absorbing polymer (1% Psyllium) to chow; format: in vivo, rat; details: rats, chow with 1% Psyllium (FIGS. 5A-5C)
Excerpt: Rats were monitored for fecal water content as in Example 13, with the addition of a second group that were fed chow with the addition of 1% Psyllium to their diet. In addition to fecal water and urinary sodium, fecal form was monitored on a scale of 1-5, where 1 is a normal pellet, 3 indicates soft and unformed pellets, and 5 indicates watery feces.

NHE-2 = target: T1, NHE-2 (Rattus norvegicus, UniProt P48763); details: * = from rat; read-out: IC50 or Ki, NHE-2; cited from earlier work
T1 sequence (P48763 1-813): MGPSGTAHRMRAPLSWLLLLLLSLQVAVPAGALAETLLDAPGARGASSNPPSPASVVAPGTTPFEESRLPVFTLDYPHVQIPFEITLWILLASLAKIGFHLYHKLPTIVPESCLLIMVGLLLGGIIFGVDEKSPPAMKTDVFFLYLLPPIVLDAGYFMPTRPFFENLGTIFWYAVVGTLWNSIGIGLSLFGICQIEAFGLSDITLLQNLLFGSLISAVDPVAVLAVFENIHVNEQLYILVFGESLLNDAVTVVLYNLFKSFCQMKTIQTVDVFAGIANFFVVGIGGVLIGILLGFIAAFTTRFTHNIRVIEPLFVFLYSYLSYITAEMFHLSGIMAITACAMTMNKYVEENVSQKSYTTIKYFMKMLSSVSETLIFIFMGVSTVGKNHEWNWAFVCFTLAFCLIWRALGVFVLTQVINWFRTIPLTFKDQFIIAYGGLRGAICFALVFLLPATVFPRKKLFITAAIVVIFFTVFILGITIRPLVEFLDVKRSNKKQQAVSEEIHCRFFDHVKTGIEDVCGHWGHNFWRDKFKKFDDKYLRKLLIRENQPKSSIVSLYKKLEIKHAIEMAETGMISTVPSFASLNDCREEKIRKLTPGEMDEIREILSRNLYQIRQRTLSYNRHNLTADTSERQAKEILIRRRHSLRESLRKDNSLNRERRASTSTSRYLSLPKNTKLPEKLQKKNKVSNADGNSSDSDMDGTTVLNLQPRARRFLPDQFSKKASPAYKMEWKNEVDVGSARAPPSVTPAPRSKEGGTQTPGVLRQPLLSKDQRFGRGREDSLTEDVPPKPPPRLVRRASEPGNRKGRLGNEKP

NHE-5 = target: T2, NHE-5 (Homo sapiens, UniProt Q14940); details: read-out: IC50 or Ki, NHE-5; cited from earlier work
T2 sequence (Q14940 1-896): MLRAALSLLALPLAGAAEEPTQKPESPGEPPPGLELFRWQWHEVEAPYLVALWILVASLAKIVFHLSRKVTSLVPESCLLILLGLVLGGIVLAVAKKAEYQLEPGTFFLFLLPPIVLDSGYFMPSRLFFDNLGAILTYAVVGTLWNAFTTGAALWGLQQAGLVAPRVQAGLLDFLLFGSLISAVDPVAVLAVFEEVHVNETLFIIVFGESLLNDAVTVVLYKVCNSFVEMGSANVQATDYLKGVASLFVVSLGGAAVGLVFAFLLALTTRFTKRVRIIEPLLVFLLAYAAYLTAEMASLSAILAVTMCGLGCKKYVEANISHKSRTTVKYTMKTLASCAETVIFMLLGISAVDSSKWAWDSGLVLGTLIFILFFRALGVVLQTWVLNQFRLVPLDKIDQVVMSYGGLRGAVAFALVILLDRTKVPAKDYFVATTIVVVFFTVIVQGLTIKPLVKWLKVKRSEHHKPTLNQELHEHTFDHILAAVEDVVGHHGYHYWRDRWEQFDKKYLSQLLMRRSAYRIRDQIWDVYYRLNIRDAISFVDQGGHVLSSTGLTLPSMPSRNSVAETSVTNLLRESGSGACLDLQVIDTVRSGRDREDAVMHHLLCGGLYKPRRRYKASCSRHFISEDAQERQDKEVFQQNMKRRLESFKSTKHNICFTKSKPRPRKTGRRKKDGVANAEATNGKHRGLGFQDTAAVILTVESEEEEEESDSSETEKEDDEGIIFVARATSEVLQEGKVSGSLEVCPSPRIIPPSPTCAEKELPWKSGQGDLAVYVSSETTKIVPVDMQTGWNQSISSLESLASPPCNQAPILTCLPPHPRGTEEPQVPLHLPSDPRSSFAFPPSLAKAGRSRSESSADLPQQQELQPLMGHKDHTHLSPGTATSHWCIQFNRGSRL

NHE-3 = NHE-3 (Rattus norvegicus, UniProt P26433); details: * = from rat; read-out: IC50 or Ki, NHE-3; cited from earlier work
Sequence of NHE-3 (P26433 29-831): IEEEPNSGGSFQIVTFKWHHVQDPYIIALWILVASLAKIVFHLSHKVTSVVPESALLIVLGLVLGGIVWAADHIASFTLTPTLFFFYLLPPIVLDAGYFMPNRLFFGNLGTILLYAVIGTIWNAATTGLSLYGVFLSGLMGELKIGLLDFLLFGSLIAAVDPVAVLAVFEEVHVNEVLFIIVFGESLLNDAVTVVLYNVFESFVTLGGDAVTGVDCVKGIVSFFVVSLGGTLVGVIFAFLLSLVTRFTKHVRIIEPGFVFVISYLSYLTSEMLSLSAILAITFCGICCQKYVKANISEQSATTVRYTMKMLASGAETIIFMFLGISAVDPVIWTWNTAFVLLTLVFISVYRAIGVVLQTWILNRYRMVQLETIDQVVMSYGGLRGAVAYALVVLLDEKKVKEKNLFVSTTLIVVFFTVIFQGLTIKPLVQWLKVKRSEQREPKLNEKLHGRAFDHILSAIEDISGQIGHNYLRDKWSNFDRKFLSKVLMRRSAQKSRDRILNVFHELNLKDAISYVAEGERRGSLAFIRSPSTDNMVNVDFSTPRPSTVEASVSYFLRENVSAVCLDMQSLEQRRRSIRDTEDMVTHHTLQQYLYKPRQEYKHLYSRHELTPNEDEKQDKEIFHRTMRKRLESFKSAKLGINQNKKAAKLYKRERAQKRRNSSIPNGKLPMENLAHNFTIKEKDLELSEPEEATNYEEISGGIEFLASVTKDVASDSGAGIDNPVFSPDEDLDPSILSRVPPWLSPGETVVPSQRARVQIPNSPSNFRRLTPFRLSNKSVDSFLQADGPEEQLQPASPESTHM

NHE-1 = NHE-1 (Rattus norvegicus, UniProt P26431); details: * = from rat; read-out: IC50 or Ki, NHE-1; cited from earlier work
Sequence of NHE-1 (P26431 whole entry): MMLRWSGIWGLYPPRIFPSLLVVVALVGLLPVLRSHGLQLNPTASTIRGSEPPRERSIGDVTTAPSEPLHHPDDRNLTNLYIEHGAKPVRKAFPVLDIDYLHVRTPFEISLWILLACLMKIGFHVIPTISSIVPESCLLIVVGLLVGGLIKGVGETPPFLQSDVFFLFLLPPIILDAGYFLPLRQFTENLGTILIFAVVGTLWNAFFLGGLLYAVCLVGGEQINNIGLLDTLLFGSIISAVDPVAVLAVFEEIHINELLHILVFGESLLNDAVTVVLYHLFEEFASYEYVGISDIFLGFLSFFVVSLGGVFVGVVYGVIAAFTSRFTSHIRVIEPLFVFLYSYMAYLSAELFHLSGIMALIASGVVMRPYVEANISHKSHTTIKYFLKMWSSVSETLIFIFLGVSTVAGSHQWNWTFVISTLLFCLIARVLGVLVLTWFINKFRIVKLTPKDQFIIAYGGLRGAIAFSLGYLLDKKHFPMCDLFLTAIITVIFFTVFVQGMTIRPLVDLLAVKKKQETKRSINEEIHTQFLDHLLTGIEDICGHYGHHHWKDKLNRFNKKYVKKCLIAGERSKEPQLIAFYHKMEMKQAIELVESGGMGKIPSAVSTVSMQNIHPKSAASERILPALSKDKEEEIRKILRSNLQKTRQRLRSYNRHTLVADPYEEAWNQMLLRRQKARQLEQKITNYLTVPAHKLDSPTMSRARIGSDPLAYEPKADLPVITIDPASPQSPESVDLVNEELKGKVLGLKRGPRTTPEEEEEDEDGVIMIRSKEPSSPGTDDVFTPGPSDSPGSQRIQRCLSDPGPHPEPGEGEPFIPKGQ

CN1Cc2c(Cl)cc(Cl)cc2C(c2cccc(S(=O)(=O)NCCOCCOCCOCCNC(=O)C(O)C(O)C(=O)NCCOCCOCCOCCNS(=O)(=O)c3cccc(C4CN(C)Cc5c(Cl)cc(Cl)cc54)c3)c2)C1 (single isomer, unassigned) [Example 224, N1,N4-bis(2-(2-(2-(2-(3-((S or R)-6,8-dichloro-2-methyl-1,2,3,4-tetrahydroisoquinolin-4-yl)phenylsulfonamido)ethoxy)ethoxy)ethoxy)ethyl)-2,3-dihydroxysuccinamide]
visceral hypersensitivity to distension (abdominal contractions) [1]: reduces visceral hypersensitivity to distension | % Fecal water (% of control) (fecal water content): 125% of control | % Fecal water (fecal water content; mean of 6): 65% | ability to increase fecal water content or decrease urinary sodium with Psyllium in the diet [2]: without impacting the ability

CCN(c1nc(N)c(C(=O)NC(=N)N)nc1Cl)C(C)C [EIPA, ethyl isopropyl amiloride]
IC50 (NHE-2): 80 nM

N=C(N)NC(=O)c1nc(Cl)c(N2CCCCCC2)nc1N [HMA]
IC50 (NHE-5): 370 nM | IC50 (NHE-3): 2400 nM | IC50 (NHE-1): 13 nM

Reference: patent publication US20190374533A1, “COMPOUNDS AND METHODS FOR INHIBITING NHE-MEDIATED ANTIPORT IN THE TREATMENT OF DISORDERS ASSOCIATED WITH FLUID RETENTION OR SALT OVERLOAD AND GASTROINTESTINAL TRACT DISORDERS” (Ardelyx, Inc., priority 2008, published 2019)
